Reference: patent US12440531B2, “Composition for use in improving endothelial function by enhancing flow mediated dilation” (SOCIETE DES PRODUITS NESTLE S.A., priority 2019, dated 2025)

Experiments:
[1] = system: L. johnsonii esterase; assay: Substrate specificity with 4-nitrophenyl derivatives; type: biochemical, Lactobacillus johnsonii; settings: substrate 0.2 mM, sodium phosphate buffer pH 6.0, 37° C., 10 min, absorbance 410 nm
Method: The substrate specificity of L. johnsonii esterase was studied using different 4-nitrophenyl derivatives. […] The reactions were carried out in sodium phosphate buffer pH 6.0 at 37° C. for 10 min. The substrates were used at concentration of 0.2 mM and enzyme at 0.01 U/mg substrate. The measures were monitored each 30 seconds. The absorbance was set at 410 nm.

[2] = system: human vascular function; settings: pure 5-CQA at 450 mg and 900 mg, 24 subjects; cited from earlier work

Row | transformation as substrate of L. johnsonii esterase [1] | SMILES | effect on human vascular function [2]
1 | best substrate | CCCC(=O)Oc1ccc([N+](=O)[O-])cc1 [4-nitrophenyl butyrate] | –
2 | no transformation | CCCCCCCCCCCC(=O)Oc1ccc([N+](=O)[O-])cc1 [4-nitrophenyl dodecanoate] | –
3 | – | O=C(/C=C/c1ccc(O)c(O)c1)O[C@@H]1C[C@](O)(C(=O)O)C[C@@H](O)[C@H]1O [Dose 5-CQA, 5-CQA] | did not show a significant effect
